From US11820764B2, “Compound modulating GSK-3 activity” (National Institute of Immunology, priority 2020, dated 2023)

Key:
[1] = Pharmacokinetics in rats, plasma HPLC; assay type: in vivo; conditions: both sexes, rat, 15 ug/kg
Protocol: The rats were randomly divided into two groups (I and II) in half respectively male and female. A dose of 15 μg/kg of Compound Y was administered to group I and II. Serial blood samples (0.5 mL) were collected into heparinized tubes from the retro-orbital region at 1, 2, 4, 6, 12, 24, 36, 48, and 72 h. Samples were immediately centrifuged at 12,000 rpm for 10 min and stored at −20° C. until analysis. Plasma was processed for HPLC analysis. 100 μl Acetonitrile was added in 100 μl plasma (1:1) and centrifuge at 12,000 for 5 minute. Supernatant transferred in a clean tube. Dried under Nitrogen gas 200 μl Acetonitrile: water (1:1) was added in dry tube and centrifuge at 12,000 rpm for 15 minute. Filtered with 0.2 μm membrane filter. 20 μl samples were used for analysis in HPLC. […] (FIG. 5)

[2] = Blood brain barrier crossing, mass spectrometry of cerebrospinal fluid of treated mice; assay type: in vivo; conditions: CSF of treated animals

**Q.** For O=C(O)CCCCCN1C(=O)/C(=C/c2c[nH]c3ccccc23)SC1=S [SG001], which Cmax [1] is on record?
**A.** 27 nM

**Q.** What about the Tmax [1] of the same molecule?
**A.** 48 h

**Q.** And the “crossing of blood brain barrier (detection in CSF)” value [2]?
**A.** able to cross the blood brain barrier
